Reference: PMC10720383, “Acetylcholinesterase Inhibition in Rats and Humans Following Acute Fenitrothion Exposure Predicted by Physiologically Based Kinetic Modeling-Facilitated Quantitative In Vitro to In Vivo Extrapolation” (Environmental Science & Technology, 2023)
Where “and” joins values, the source holds several entries; their conditions need not be identical. Equal entries are not always repeated. Where two headings read alike, the source gives them in different places.

Experiments:
CYP450s [1] = assay: in vitro; type: in vitro ADME; conditions: both sexes, Sprague-Dawley, rat, pH 7.4, rat liver microsomes, gender-mixed
Protocol: (§1) In vitro incubations were performed to obtain kinetic parameters for the CYP450s-catalyzed conversion of FNT to FNO and MNP using gender-mixed rat and human liver microsomes. For the PON1-dominated detoxification of FNO to MNP, in vitro incubations were conducted with gender-mixed liver microsomes or plasma from rats and humans. Sample extraction with diisopropyl ether was performed before UPLC-PDA analysis. More details on in vitro incubations, sample extraction, UPLC-PDA analysis, and calculation of kinetic parameters are provided in the Supporting Information.
(§2) Supplementary materials and methods
Chemical and biological materials […]
Human liver microsomes (pooled from 150 donors, mixed gender) and pooled male rat liver microsomes (Sprague-Dawley) were purchased from Corning (Amsterdam, The Netherlands). […] Human plasma (pooled from 25 donors, mixed gender) and rat plasma (Sprague-Dawley, mixed gender) were ordered from BioIVT (West Sussex, UK), and corresponding total protein concentrations were determined using BCA protein assay (Supporting Information). […]

CYP450s [2] = assay: in vitro; type: in vitro ADME, human; conditions: gender-mixed
Protocol: as §1, §2
Chemical and biological materials
FNT, acetylthiocholine iodide (ATC), 5,5’-dithiobis (2-nitrobenzoic acid) (DTNB), ethopropazine, tetraisopropyl pyrophosphoramide (iso-OMPA), perchloric acid (HClO4), trifluoroacetic acid (TFA), EDTA, MgCl2•6H2O, CaCl2•2H2O, NaH2PO4, Na2HPO4, Triton-X 100, Trizma® base and diisopropyl ether (DIPE) were ordered from Sigma-Aldrich (Amsterdam, The Netherlands). FNO was purchased from FUJIFILM Wako Pure Chemical Corporation (Tokyo, Japan), MNP and reduced nicotinamide adenine dinucleotide phosphate (NADPH) from Carbosynth Ltd. (Compton, UK). Acetonitrile (UPLC/MS grade), methanol (UPLC/MS grade) and ethanol (UPLC/MS grade) were ordered from Biosolve (Valkenswaard, The Netherlands). Chlorpyrifos-oxon was ordered from TRC-Canada (Toronto, Ontario, Canada). Ultrapure water was prepared using a Sartorius Arium® Pro ultrapure water system (Göttingen, Germany).
Human liver microsomes (pooled from 150 donors, mixed gender) and pooled male rat liver microsomes (Sprague-Dawley) were purchased from Corning (Amsterdam, The Netherlands). Pooled female rat liver microsomes (Sprague-Dawley) were ordered from Sigma-Aldrich (St. Louis, MO, USA). […] Human plasma (pooled from 25 donors, mixed gender) and rat plasma (Sprague-Dawley, mixed gender) were ordered from BioIVT (West Sussex, UK), and corresponding total protein concentrations were determined using BCA protein assay (Supporting Information). […]

[3] = cited from earlier work
erythrocyte AChE [4] = conditions: rat, cited from earlier work
erythrocyte AChE [5] = conditions: human, highest dose tested, cited from earlier work
erythrocyte AChE [6] = conditions: cited from earlier work

Structure (SMILES): COP(=S)(OC)Oc1ccc([N+](=O)[O-])c(C)c1 [FNT, O,O-dimethyl O-4-nitro-m-tolyl phosphorothioate]
- Km (CYP450s [1]; read-out: Km, FNT to FNO (CYP450s-catalyzed)): 8.28 µM
- Km (CYP450s [1]; read-out: Km, FNT to MNP (CYP450s-catalyzed)): 20.5 µM
- Km (CYP450s [2]; both sexes, human, pH 7.4, human liver microsomes, read-out: Km, FNT to FNO (CYP450s-catalyzed)): 21.6 µM
- Km (CYP450s [2]; both sexes, human, pH 7.4, human liver microsomes, read-out: Km, FNT to MNP (CYP450s-catalyzed)): 4.08 µM
- Km (CYP450s [2]; human liver microsomes, read-out: Km, FNT to MNP (CYP450s-catalyzed)): 4.08 µM
- LogP, reported data ([3]; not clear if experimental or in silico, ref WHO 2004): 3.16
- LogP, experimental data ([3]; ref JMPR 2003): 3.319
- reported NOAEL (erythrocyte AChE [4]; EFSA, 90 day rat study, body weight gain and erythrocyte and brain cholinesterase activity): 1.3 mg/kg BW and 1.30 mg/kg BW
- reported NOAEL (erythrocyte AChE [4]; US EPA, erythrocyte AChE inhibition after 2 weeks of dosing in a 92 week rat study): 0.25 mg/kg BW
- reported NOAEL (erythrocyte AChE [5]; APVMA, single dose human study): 0.33 mg/kg BW
- reported NOAEL (erythrocyte AChE [5]; JMPR, 4 day study in human volunteers): 0.36 mg/kg BW
- acute reference dose (ARfD) (erythrocyte AChE [6]; JMPR): 0.04 mg/kg BW/day
- acute reference dose (ARfD) (erythrocyte AChE [6]; US EPA): 0.0025 mg/kg BW/day
